Assay results as given in US11236120B2, “Azithromycin derivatives with epithelial barrier enhancement properties” (EpiEndo Pharmaceuticals ehf, priority 2015, dated 2022).
≈ marks a conversion by molar mass, not a printed value. Entries after “also recorded” stand apart in the source; their conditions may differ.

Columns and labels:
[1] = Stability in human plasma; type: in vitro ADME; settings: room temperature
Method: Stability in Mouse and Human Plasma
The stability of the compounds in mouse and human plasma was performed using protein precipitation as sample clean-up and HPLC-MS detection. The plasma stability studies of the compounds was performed at room temperature for up to 4 hours. A stock solution of […] in DMSO was prepared for each compound. For the plasma stability samples, 100 μL of the stock solution was diluted with 3.9 mL of either mouse or human plasma to a final concentration of […]. The plasma was left to equilibrate for 10 minutes at room temperature before the first analysis. For each analyzed time point ([…]) a 100 μL aliquot of the plasma was removed and protein precipitation (PPT) was performed on the aliquot by adding 900 μL of (ACN:DMSO) 95:5. The precipitated sample was shaken for 60 seconds and then centrifuged. The supernatant was transferred to an HPLC vial and analyzed using HPLC-MS. The chromatographic signal area of the samples at the different time points were then compared against each other, by setting the initial analysis at t=0 min as 100% and then calculating the %-value for each subsequent time point.
The chromatographic separation was performed on a Waters HPLC-MS system using a 50×2.1 mm×Bridge C18 column and a gradient elution of Water with 0.1% formic acid and acetonitrile with 0.1% formic acid. The analytes were analyzed in positive electro-spray mode using the (M+H)^+ in single ion recording.

[2] = test system: Bacillus megaterium (BM-11); assay: Assay 1: antimicrobial broth dilution on microtiter plates, Bacillus megaterium; type: cell-based; settings: Priestia megaterium
Method: The antimicrobial activity of each Example compound was investigated. The Minimal Inhibitory Concentration (MIC—the minimal dose required to inhibit bacterial growth) and the Minimal Bactericidal Concentration (MBC—the minimal dose required to kill bacteria) were measured for each compound for Streptococcus pneumoniae (ATCC49619), Staphylococcus aureus (ATCC29213), Bacillus megaterium (BM-11) and Escherichia coli (D-21) using an antimicrobial broth dilution method on microtiter plates. The Minimal Inhibitory Concentration (MIC) was also measured for each example compound and azithromycin with Mycobacterium avium complex (MAC). […]
The Minimal Inhibitory Concentration (MIC—the minimal dose required to inhibit bacterial growth) and the Minimal Bactericidal Concentration (MBC—the minimal dose required to kill bacteria) were measured for each compound for Streptococcus pneumoniae (ATCC49619), Staphylococcus aureus (ATCC29213), Bacillus megaterium (BM-11) and Escherichia coli (D-21) using an antimicrobial broth dilution method on 96 well microtiter plates. […]
After addition of the bacterial solution, the plates were incubated at 35° C. for 18 h. The bacterial growth of each well was then recorded and then the Minimal Inhibitory Concentration (MIC) and Minimal Bactericidal Concentration ([…]) were determined.

[3] = test system: barrier integrity in the lungs of mice under sulphur dioxide insult; assay: Barrier integrity enhancement in the lung: HSA leakage into BAL after sulphur dioxide insult; type: in vivo
Method: The effect of compounds of the invention on maintenance of barrier integrity in the lungs of mice under sulphur dioxide insult was investigated.
1. 15 female mice were randomised into 3 groups of 5 mice. The three groups were: • a) Control group • b) Azithromycin treatment group • c) Investigational compound treatment group
2. The mice were pre-treated for three days with: • a) Placebo (Phosphate buffered saline—PBS) given at a dose of 10 mg/kg in an intravenous injection of 100 μl three times per week. • b) Azithromycin: given at a dose of 10 mg/kg in an intravenous injection of 100 μl three times per week. • c) The compound of Example 2: given at a dose of 10 mg/kg in an intravenous injection of 100 μl three times per week.
3. One mouse in each group was set to one side as a control. Four mice were then exposed to sulphur dioxide gas at a concentration of 200 ppm in air for a period of 60 minutes. The mice were in a cage that was inserted into a 45 L treatment box with a removable lid, a gas feed line and a gas exhaust vent. […] The gas was premixed from bottled air and bottled 200 ppm SO2 in a first box and then fed into the treatment box. The level of SO2 being fed into the treatment box can be varied by adjusting the relative flow of air and SO2 from the two source cylinders. As the sulphur dioxide concentration in this experiment was 200 ppm, it was used neat, with no additional air being mixed with it. The mice had access to food and water for the duration of the treatment.
4. 24 hours after the end of the treatment, 1 mg of human serum albumin (HSA) in 100 μl saline was injected into the tail vein of each mouse, and fluorescent dextrans (FDs) were injected into the airways. The mice were then kept sedated for 90 minutes.
5. After 90 minutes, the mice were sacrificed via exsanguination. Plasma and bronchoalveolar lavage (BAL) were collected and the lungs were processed for paraffin embedding.
6. The level of HSA in the BAL was quantified by ELISA. The ELISA test used was the one commercially available from abcam (Human Serum Albumin kit ab179887). In line with the kit manufacturer's instructions, absorbance at […] was measured. Fluorescent dextrans are quantified using a fluorescent plate reader.
The level of HSA that leaks into the lungs, as found in the BAL, is a measure of the integrity of the lung epithelial barrier.
In the placebo group, there were experimental difficulties with two of the four mice; in the Azithromycin group, there were experimental difficulties with one of the four mice; and in the investigational compound group, there were experimental difficulties with two of the four mice. Therefore, results were obtained from two mice in each of the placebo and investigational compound groups, and from three mice in the Azithromycin group.

CC[C@H]1OC(=O)[C@H](C)[C@@H](O[C@H]2C[C@@](C)(OC)[C@@H](O)[C@H](C)O2)[C@H](C)[C@@H](O[C@@H]2O[C@H](C)C[C@H](N(C)C)[C@H]2O)[C@](C)(O)C[C@@H](C)CN(C)[C@H](C)[C@@H](O)[C@]1(C)O [Azithromycin, (2R,3S,4R,5R,8R,10R,11R,12S,13S,14R)-11-[(2S,3R,4S,6R)-4-(dimethylamino)-3-hydroxy-6-methyl-tetrahydropyran-2-yl]oxy-2-ethyl-3,4,10-trihydroxy-13-[(2R,4R,5S,6S)-5-hydroxy-4-methoxy-4,6-dimethyl-tetrahydropyran-2-yl]oxy-3,5,6,8,10,12,14-heptamethyl-1-oxa-6-azacyclopentadecan-15-one]
Degradation in Human Plasma at RT [1]: 6 % per hour
MBC [2]: 2 µg/mL (≈ 2.67 µM)
MIC [2]: 1 µg/mL (≈ 1.34 µM)
HSA level - absorbance at 600 nm ([3]; HSA in BAL by ELISA, mice, 10 mg/kg intravenous, 200 ppm SO2 for 60 minutes): 0.346 ± 0.031
leakage of HSA into the lung following SO2 insult ([3]; compared with control, FIG. 1): reduced compared with the control; also recorded: reduced compared with a control
HSA level - absorbance at 600 nm relative to control ([3]; relative to PBS control, mice, 10 mg/kg intravenous, 200 ppm SO2 for 60 minutes): 0.593 ± 0.053
